Data as given in patent US12371507B2, “CDCP1 antibodies and antibody drug conjugates” (Beth Israel Deaconess Medical Center, priority 2018, dated 2025).
Non-standard residues stand in square brackets, D forms with d. Residues, ends and D or L forms follow the SMILES beside them. *: point of attachment. Dolaproine = CO[C@@H]([C@@H]1CCCN1)[C@@H](C)C(=O)O; Dil = CC[C@H](C)[C@H](NC)[C@@H](CC(=O)O)OC; Doe = c1ccc(C[C@H](N*)c2nccs2)cc1; Aib = CC(C)(N)C(=O)O

Key:
[1] = tested on: head and neck cancer model PDX-HNX-24715; assay: PDX tumor growth versus standard of care; type: in vivo, mouse; details: 5 mg/kg
Method: (§1) The effects of ADCs were evaluated on the in vivo growth of human tumor patient-derived xenografts (PDX) implanted into immunodeficient NOD/SCID mice. To establish initial PDX cell lines, primary human tumor resection samples were procured from clinical sites following Institutional Review Board for the Protection of Human Subjects approval and in accordance with HIPAA regulations. Tumor fragments were implanted subcutaneously in mice and animals were monitored for health status daily and for tumor growth by visual inspection twice per week. Once the tumors were palpable, measurements of tumor volume began in order to track tumor growth and estimate cell doubling time. Tumor volume was estimated using the equation V=(A*B^2)/2 where A is the long axis and B is the short axis. When tumors reached a volume of 500 mm^3 to 1,500 mm^3, they were harvested for study and for re-transplant in naïve mice as a PDX line. Tumors were mechanically dissociated into fragments for cryopreservation or additional passage in mice.
(§2) For efficacy studies, PDX tumors were aseptically harvested from passaging mice and minced into fragments approximately 2 mm in diameter. The PDX tumor fragments were transplanted into the right flank of naïve 7-10-week old NOD-SCID mice.
(§3) Tumor growth was initially followed by palpability with measurements beginning once tumor volumes reached about 30 mm^3. Studies were randomized based on tumor size once a cohort of tumor-bearing mice reached an average of 200 mm^3. Animals were then dosed by intravenous injection of test ADCs once every four days (day 1, 5, 9, and 13) for four total doses (q4d×4). For each tumor measurement taken at regular intervals the tumor volume was calculated and an average tumor size +/− the standard error of the mean (SEM) was derived per cohort of surviving animals to determine tumor growth rates. In some studies, a “waterfall plot” was derived by calculating the maximum observed percent difference in tumor volume from the starting volume post the final dose of ADC. […]

[2] = tested on: NSCLC model PDX-NSX-15137; assay: PDX tumor growth versus standard of care; type: in vivo, mouse; details: 22.5 mg/kg
Method: as §1, §2, §3

[3] = tested on: SCC-25 cells; assay: In vitro cytotoxicity (ATPlite viability, four days); type: cell-based; details: Homo sapiens; SCC-25, head and neck cancer
Method: (§4) Cells were incubated in a 6-fold 9-point dilution series of respective ADCs ranging in concentration from 600 nM to 0.357225 pM. […] The mean of luminescence counts of triplicate samples were normalized to a medium only control (growth medium no ADC) to calculate percent viability.

[4] = tested on: PE/CA-PJ-49 cells; assay: as above; type: cell-based; details: Homo sapiens; PE/CA-PJ-49, oral squamous cell carcinoma
Method: as §4

[5] = tested on: primary human aortic smooth muscle cells (HuAoSMC); assay: as above; type: cell-based
Method: as §4

[6] = tested on: PC3 cells; assay: as above; type: cell-based; details: Homo sapiens, PC-3; PC3, prostate cancer
Method: as §4

[7] = tested on: H2009 cells; assay: as above; type: cell-based; details: Homo sapiens, NCI-H2009; H2009, lung adenocarcinoma
Method: as §4

[8] = tested on: H1299 cells; assay: as above; type: cell-based; details: Homo sapiens, NCI-H1299; H1299, NSCLC
Method: as §4

For `N.N.[Cl][Pt][Cl]` [cisplatin, reference compound], the “tumor size at day 25” value [1] was “more than doubled in size”.
For `CC(=O)O[C@H]1C(=O)[C@@]2(C)[C@H]([C@H](OC(=O)c3ccccc3)[C@]3(O)C[C@H](OC(=O)[C@H](O)[C@@H](NC(=O)c4ccccc4)c4ccccc4)C(C)=C1C3(C)C)[C@]1(OC(C)=O)CO[C@@H]1C[C@@H]2O` [Paclitaxel, reference compound], the “average tumor size at day 35” value [2] was “doubled” and the “day by which all mice had been sacrificed due to excessive tumor growth” value [2] was ≤ 42 days.
`CC[C@H](C)[C@@H]([C@@H](CC(=O)N1CCC[C@H]1[C@H](OC)[C@@H](C)C(=O)N[C@@H](Cc1ccccc1)c1nccs1)OC)N(C)C(=O)[C@@H](NC(=O)C(C)(C)N)C(C)C` [Aur0101, 2-methylalanyl-N-[(3R,4S,5S)-3-methoxy-1-{(2S)-2-[(1R,2R)-1-methoxy-2-methyl-3-oxo-3-{[(1S)-2-phenyl-1-(1,3-thiazol-2-yl)ethyl]amino}propyl]pyrrolidin-1-yl}-5-methyl-1-oxoheptan-4-yl]-N-methyl-L-valinamide] (H-[Aib]V[Dil][Dolaproine]-Doe) showed an IC50 [3] of 0.047 nM, an IC50 [4] of 0.0373 nM and an IC50 [5] of 0.176 nM. It also gave an IC50 [6] of 0.0636 nM, an IC50 [7] of 0.116 nM and an IC50 [8] of 0.202 nM.
